Test results: ChEMBL document CHEMBL5107958, “Phosphoramidate Prodrugs Continue to Deliver, The Journey of Remdesivir (GS-5734) from RSV to SARS-CoV-2” (ACS Med Chem Lett, 2022)

Columns and labels:
Ebolavirus [1] = assay: Antiviral activity against Ebola infected in human macrophages assessed as reduction in viral replication; type: functional, organism-based; conditions: Orthoebolavirus, Macrophage
Ebolavirus [2] = assay: Potency index, ratio of EC50 of GS-441524 to EC50 of test compound for antiviral activity against Ebola infected in human macrophages assessed as reduction in viral replication; type: functional, Macrophage
Ebolavirus [3] = assay: Antiviral activity against Ebola infected in human HeLa cells assessed as reduction in viral replication; type: functional, organism-based; conditions: Orthoebolavirus
Ebolavirus [4] = assay: Potency index, ratio of EC50 of GS-441524 to EC50 of test compound for antiviral activity against Ebola infected in human HeLa cells assessed as reduction in viral replication; type: functional
Nipah virus [5] = assay: Potency index, ratio of EC50 of GS-441524 to EC50 of test compound for antiviral activity against Nipah M1999 infected in human HeLa cells assessed as reduction in viral replication incubated for 48 to 144 hrs by reporter virus assay; type: functional, Henipavirus nipahense; conditions: time 48-144 hrs
Measles morbillivirus [6] = assay: Antiviral activity against Measles Rec.rMVEZGFP(3) infected in human HeLa cells assessed as reduction in viral replication incubated for 48 to 144 hrs by fluorescence based assay; type: functional, organism-based
Measles morbillivirus [7] = assay: Potency index, ratio of EC50 of GS-441524 to EC50 of test compound for antiviral activity against Measles Rec.rMVEZGFP(3) infected in human HeLa cells assessed as reduction in viral replication incubated for 48 to 144 hrs by fluorescence based assay; type: functional; conditions: time 48-144 hrs
Measles morbillivirus [8] = assay: Antiviral activity against Measles virus infected in HMVEC cells assessed as reduction in viral replication; type: functional, organism-based
Measles morbillivirus [9] = assay: Potency index, ratio of EC50 of GS-441524 to EC50 of test compound for antiviral activity against Measles virus infected in HMVEC cells assessed as reduction in viral replication; type: functional
SARS-CoV [10] = assay: Antiviral activity against SARS-CoV infected in HAE cells assessed as reduction in viral replication at MOI of 0.5 preincubated for 3 hrs followed by virus removal measured after 48 hrs by Hoechst 33258 staining based assay; type: functional, organism-based; conditions: Severe acute respiratory syndrome-related coronavirus
SARS-CoV [11] = assay: Potency index, ratio of EC50 of GS-441524 to EC50 of test compound for antiviral activity against SARS-CoV infected in HAE cells assessed as reduction in viral replication at MOI of 0.5 preincubated for 3 hrs followed by virus removal measured after 48 hrs by Hoechst 33258 staining based assay; type: functional, Severe acute respiratory syndrome-related coronavirus; conditions: time 51 hrs
SARS-CoV-2 [12] = assay: Potency index, ratio of EC50 of GS-441524 to EC50 of test compound for antiviral activity against SARS-CoV-2 infected in human A549 cells expressing hACE2 assessed as reduction in viral replication at MOI of 0.025 incubated for 48 hrs by luciferase based assay; type: functional, Severe acute respiratory syndrome coronavirus 2
SARS-CoV-2 [13] = assay: Potency index, ratio of EC50 of GS-441524 to EC50 of test compound for antiviral activity against SARS-CoV-2 infected in human Huh-7 cells assessed as reduction in virus-induced cytopathic effect at MOI of 0.0037 measured after 4 days by MTS assay; type: functional, Severe acute respiratory syndrome coronavirus 2; conditions: time 4 day
SARS-CoV-2 [14] = assay: Potency index, ratio of EC50 of GS-441524 to EC50 of test compound for antiviral activity against SARS-CoV-2 infected in African green monkey Vero E6 cells assessed as reduction in viral replication; type: functional, Severe acute respiratory syndrome coronavirus 2
SARS-CoV-2 [15] = assay: Antiviral activity against SARS-CoV-2 infected in human Caco-2 cells assessed as reduction in viral replication at MOI of 0.01 measured after 72 hrs by qRT-PCR analysis; type: functional, organism-based; conditions: Severe acute respiratory syndrome coronavirus 2, Caco-2, 72 h
SARS-CoV-2 [16] = assay: Potency index, ratio of EC50 of GS-441524 to EC50 of test compound for antiviral activity against SARS-CoV-2 infected in human Caco-2 cells assessed as reduction in viral replication at MOI of 0.01 measured after 72 hrs by qRT-PCR analysis; type: functional, Severe acute respiratory syndrome coronavirus 2
SARS-CoV-2 [17] = assay: Antiviral activity against SARS-CoV-2 infected in human Calu-3 cells assessed as reduction in viral replication at MOI of 0.01 measured after 72 hrs by qRT-PCR analysis; type: functional, organism-based; conditions: Severe acute respiratory syndrome coronavirus 2, Calu-3, 72 h
SARS-CoV-2 [18] = assay: Potency index, ratio of EC50 of GS-441524 to EC50 of test compound for antiviral activity against SARS-CoV-2 infected in human Calu-3 cells assessed as reduction in viral replication at MOI of 0.01 measured after 72 hrs by qRT-PCR analysis; type: functional, Severe acute respiratory syndrome coronavirus 2
SARS-CoV-2 [19] = assay: Antiviral activity against SARS-CoV-2 infected in human Calu-3 2B4 cells assessed as reduction in viral replication at MOI of 0.01 preincubated for 2 hrs followed by viral infection for 30 mins and subsequent virus removal and addition of medium containing compound measured after 72 hrs by RT-qPCR analysis; type: functional, organism-based; conditions: Severe acute respiratory syndrome coronavirus 2, Calu-3 2B4
SARS-CoV-2 [20] = assay: Potency index, ratio of EC50 of GS-441524 to EC50 of test compound for antiviral activity SARS-CoV-2 infected in human Calu-3 2B4 cells assessed as reduction in viral replication at MOI of 0.01 preincubated for 2 hrs followed by viral infection for 30 mins and subsequent virus removal and addition of medium containing compound measured after 72 hrs by RT-qPCR analysis; type: functional, Severe acute respiratory syndrome coronavirus 2; conditions: time 74.5 hrs
SARS-CoV-2 [21] = assay: Antiviral activity against SARS-CoV-2 infected in HAE cells assessed as reduction in viral replication at MOI of 0.5 incubated for 2 hrs followed by virus removal measured after 48 hrs by plaque assay; type: functional, organism-based; conditions: Severe acute respiratory syndrome coronavirus 2, HAE
SARS-CoV-2 [22] = assay: Antiviral activity against SARS-CoV-2 infected in human PSC-derived lung epithelial cells assessed as reduction in viral replication; type: functional, organism-based; conditions: Severe acute respiratory syndrome coronavirus 2, Epithelial cell
[23] = tested on: Middle East respiratory syndrome-related coronavirus; assay: Potency index, ratio of EC50 of GS-441524 to EC50 of test compound for antiviral activity against MERS-CoV infected in HAE cells assessed as reduction in viral replication at MOI of 0.5 incubated for 3 hrs followed by virus removal measured after 48 hrs by Hoechst 33258 staining based assay; type: functional; conditions: time 51 hrs
[24] = Half life in ferret at 10 mg/kg, iv; type: ADME, organism-based, Mustela putorius furo; conditions: in vivo
[25] = AUC (0 to infinity) in ferret at 10 mg/kg, iv; type: ADME, organism-based, Mustela putorius furo; design: time infinity, dose 10 mg/kg, route iv; conditions: in vivo
[26] = Prodrug conversion in ferret lung assessed as triphosphate metabolite formation at 10 mg/kg, iv measured after 24 hrs; type: ADME, organism-based, Mustela putorius furo; conditions: in vivo
[27] = Half life in Rhesus monkey at 10 mg/kg, iv; type: ADME, organism-based, Macaca mulatta; conditions: in vivo
[28] = Clearance in human at 2.5 mg/kg, iv; type: ADME, organism-based; conditions: in vivo
[29] = AUC (0 to infinity) in human at 2.5 mg/kg, iv; type: ADME, organism-based; design: time infinity, dose 2.5 mg/kg, route iv; conditions: in vivo
[30] = Prodrug conversion in human assessed as AUC (0 to last) of parent nucleoside compound at 2.5 mg/kg, iv; type: ADME, organism-based; design: time 0 - last, dose 2.5 mg/kg, route iv; conditions: in vivo
[31] = Prodrug conversion in human macrophages assessed as half life of triphosphate metabolite; type: ADME, cell-based; conditions: macrophage
[32] = Stability of prodrug in mouse assessed as half life; type: ADME; conditions: in vivo
Nipah virus [33] = assay: Antiviral activity against Nipah virus infected in African green monkey assessed as animal survival at 10 mg/kg, iv qd relative to control; type: functional; conditions: Henipavirus nipahense

Compound: CCC(CC)OC(=O)[C@H](C)N[P@](=O)(OC[C@H]1O[C@@](C#N)(c2ccc3c(N)ncnn23)[C@H](O)[C@@H]1O)Oc1ccccc1
- EC50 (Ebolavirus [1]): 86 nM
- Ratio (Ebolavirus [2]): >232
- EC50 (Ebolavirus [3]): 140 nM
- Ratio (Ebolavirus [4]): >143
- Ratio (Nipah virus [5]): 32
- EC50 (Measles morbillivirus [6]): 37 nM
- Ratio (Measles morbillivirus [7]): 27
- EC50 (Measles morbillivirus [8]): 60 nM
- Ratio (Measles morbillivirus [9]): 13
- EC50 (SARS-CoV [10]): 69 nM
- Ratio (SARS-CoV [11]): 2.6
- Ratio (SARS-CoV-2 [12]): 7.6
- Ratio (SARS-CoV-2 [13]): >1000
- Ratio (SARS-CoV-2 [14]): 0.7
- EC50 (SARS-CoV-2 [15]): 1 nM
- Ratio (SARS-CoV-2 [16]): 80
- EC50 (SARS-CoV-2 [17]): 110 nM
- Ratio (SARS-CoV-2 [18]): 2.4
- EC50 (SARS-CoV-2 [19]): 280 nM
- Ratio (SARS-CoV-2 [20]): 2.2
- EC50 (SARS-CoV-2 [21]): 10 nM
- EC50 (SARS-CoV-2 [22]): 140 nM
- Ratio [23]: 12
- half-life [24]: 11 min
- AUC(0-inf) [25]: 7 µM·h
- Drug metabolism [26]: 1.28 nmol/g
- half-life [27]: 23 min
- clearance [28]: 14.3 mL/min/kg
- AUC(0-inf) [29]: 5 µM·h
- AUClast [30]: 7.5 µM·h
- t1/2 [31]: 840 min
- t1/2 [32]: 5 min
- survival at 10 mg/kg (Nipah virus [33]): 100%
